Here are results for 38 compounds from patent US12691101B2, “Compound and method for preventing or treating of respiratory diseases comprising the same as an active ingredient” (YONSEI UNIVERSITY, UNIVERSITY - INDUSTRY FOUNDATION (UIF), priority 2019, dated 2026).

One assay has as its target T1, human wild-type (WT)-pendrin (Homo sapiens, UniProt O43511).
T1 construct: expressed in transfected cells
T1 sequence (O43511 1-780): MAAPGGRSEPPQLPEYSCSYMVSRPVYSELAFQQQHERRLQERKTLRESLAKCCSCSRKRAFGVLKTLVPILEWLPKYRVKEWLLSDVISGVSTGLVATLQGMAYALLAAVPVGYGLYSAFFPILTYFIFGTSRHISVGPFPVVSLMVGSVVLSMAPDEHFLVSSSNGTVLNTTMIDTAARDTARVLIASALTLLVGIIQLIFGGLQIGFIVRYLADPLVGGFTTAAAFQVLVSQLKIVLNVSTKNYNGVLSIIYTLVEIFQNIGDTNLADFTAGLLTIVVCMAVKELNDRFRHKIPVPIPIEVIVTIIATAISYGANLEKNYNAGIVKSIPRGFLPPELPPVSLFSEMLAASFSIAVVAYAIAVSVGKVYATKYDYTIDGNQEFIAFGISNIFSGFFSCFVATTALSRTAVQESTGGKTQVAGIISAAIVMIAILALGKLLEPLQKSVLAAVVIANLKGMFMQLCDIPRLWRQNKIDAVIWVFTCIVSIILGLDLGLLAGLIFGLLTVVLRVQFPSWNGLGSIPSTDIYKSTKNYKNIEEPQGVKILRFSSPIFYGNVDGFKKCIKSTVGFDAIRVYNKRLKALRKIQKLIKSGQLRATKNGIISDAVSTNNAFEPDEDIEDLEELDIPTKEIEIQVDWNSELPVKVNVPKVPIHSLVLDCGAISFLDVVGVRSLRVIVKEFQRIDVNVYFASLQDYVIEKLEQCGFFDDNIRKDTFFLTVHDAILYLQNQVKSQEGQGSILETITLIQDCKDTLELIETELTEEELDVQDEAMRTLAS
The experiment in a line: Pendrin-mediated Cl^−/I^− exchange activity, YFP fluorescence in CHO-K1 cells. It is filed as cell-based. The settings on record: CHO-K1, 30 μM; read-out: Pendrin inhibitory activity at 30 μM (%).
`CN(C)S(=O)(=O)c1cccc(C2=NC(=Cc3cccs3)C(=O)O2)c1` [F116, N,N-dimethyl-3-(5-oxo-4-(thiophen-2-ylmethylene)-4,5-dihydrooxazol-2-yl) benzenesulfonamide]: the inhibition at 30 µM came out at 2.6%. Turning to `COc1ccccc1C1=NC(=Cc2ccc(Br)s2)C(=O)O1` [F117, 4-((5-Bromothiophen-2-yl)methylene)-2-(2-methoxyphenyl)oxazol-5(4H)-one], the inhibition at 30 µM worked out at 2.3%. Turning to `O=C1OC(c2cccs2)=NC1=Cc1ccc(Br)s1` [F118, 4-((5-Bromothiophen-2-yl)methylene)-2-(thiophen-2-yl)oxazol-5(4H)-one], the inhibition at 30 µM is 2.1%. Regarding `Cc1ccc(C=C2N=C(c3ccc(C)s3)OC2=O)s1` [F119, 2-(5-methylthiophen-2-yl)-4-((5-methylthiophen-2-yl)methylene)oxazol-5 (4H)-one], the inhibition at 30 µM was determined as 1.7%. For `O=C1OC(c2cccs2)=NC1=Cc1ccc(N2CCCCC2)s1` [F120, 4-((5-(Piperidin-1-yl)thiophen-2-yl)methylene)-2-(thiophen-2-yl)oxazol-5 (4H)-one], the inhibition at 30 µM came to 1.9%. Consider `O=C1OC(c2ccccc2OC(F)F)=NC1=Cc1ccc(Br)s1` [F121, 4-((5-Bromothiophen-2-yl)methylene)-2-(2-(difluoromethoxy)phenyl)oxazol-5(4H)-one], for which the inhibition at 30 µM is 3.4%.

In the case of `CC(C)(C)c1ccc(C2=NC(=Cc3ccccc3OC(F)F)C(=O)O2)cc1` [F122, 2-(4-(tert-butyl)phenyl)-4-(2-(difluoromethoxy)benzylidene)oxazol-5(4H)-one], the inhibition at 30 µM amounted to 3.8%. As for `O=C1OC(c2ccc3ccccc3c2)=NC1=Cc1cnn(Cc2ccccc2Cl)c1` [F123, 4-((1-(2-Chlorobenzyl)-1H-pyrazol-4-yl)methylene)-2-(naphthalen-2-yl)oxazol-5 (4H)-one], the inhibition at 30 µM worked out at 2.4%. Still for that read-out and setting: to `CC(C)(C)c1ccc(C2=NC(=Cc3cnn(-c4ccccc4)c3)C(=O)O2)cc1` [F124, 2-(4-(tert-butyl)phenyl)-4-((1-phenyl-1H-pyrazol-4-yl)methylene)oxazol-5 (4H)-one] belongs 2%; to `COc1ccccc1C1=NC(=Cc2cnn(C)c2)C(=O)O1` [F125, 2-(2-methoxyphenyl)-4-((1-methyl-1H-pyrazol-4-yl)methylene)oxazol-5(4H)-one], 1%; to `Cc1ccc(C=C2N=C(c3ccc(S(=O)(=O)NC(C)(C)C)cc3)OC2=O)o1` [F126, N-(tert-butyl)-4-(4-((5-methylfuran-2-yl)methylene)-5-oxo-4,5-dihydrooxazol-2-yl) benzenesulfonamide], 2.5%.

On to `CCN(CC)S(=O)(=O)c1ccc(C2=N/C(=C3\C=CC=CN3C)C(=O)O2)cc1` [F127, N,N-diethyl-4-(4-(1-methylpyridin-2(1H)-ylidene)-5-oxo-4,5-dihydrooxazol-2-yl)benzenesulfonamide], for which the inhibition at 30 µM is 3.6%. Consider `COc1ccccc1C1=NC(=Cc2ccc(OCC(N)=O)cc2)C(=O)O1` [F128, 2-(4-((2-(2-methoxyphenyl)-5-oxooxazol-4(5H)-ylidene)methyl)phenoxy)acetamide], for which the inhibition at 30 µM was 1.9%. The same measure, in the same setting: to `CC(=O)Nc1ccc(C=C2N=C(c3ccc(OC(C)C)cc3)OC2=O)cc1` [F129, N-(4-((2-(4-isopropoxyphenyl)-5-oxooxazol-4(5H)-ylidene)methyl)phenyl)acetamide] belongs 2.3%; to `CC(C)Oc1ccc(C2=NC(=Cc3cnn(Cc4ccccc4)c3)C(=O)O2)cc1` [F130, 4-((1-Benzyl-1H-pyrazol-4-yl)methylene)-2-(4-isopropoxyphenyl)oxazol-5 (4H)-one], 2.7%. With `CCN(CC)S(=O)(=O)c1cccc(C2=NC(=Cc3cnn(C)c3)C(=O)O2)c1` [F131, N,N-diethyl-3-(4-((1-methyl-1H-pyrazol-4-yl)methylene)-5-oxo-4,5-dihydrooxazol-2-yl)benzenesulfonamide], the inhibition at 30 µM was found to be 2.1%. `O=C1OC(c2ccccc2I)=NC1=Cc1ccc(-n2cncn2)cc1` [F132, 4-(4-(1H-1,2,4-thiazol-1-yl)benzylidene)-2-(2-iodophenyl)oxazol-5(4H)-one]: the inhibition at 30 µM came out at 3.9%. Consider `COc1cc(C=C2N=C(c3ccccc3OC)OC2=O)ccc1OCc1c(C)noc1C` [F133, 4-(4-((3,5-Dimethylisoxazol-4-yl)methoxy)-3-methoxybenzylidene)-2-(2-methoxyphenyl)oxazol-5 (4H)-one], for which the inhibition at 30 µM was found to be 4.1%. The same measure, in the same setting: the result for `CC(=O)Nc1ccc(C2=NC(=Cc3ccc(-n4cncn4)cc3)C(=O)O2)cc1` [F134, N-(4-(4-(4-(1H-1,2,4-thiazol-1-yl)benzylidene)-5-oxo-4,5-dihydrooxazol-2-yl)phenyl)acetamide] reads 3.4%; that for `O=C1OC(c2ccccc2OC(F)F)=NC1=C/C=C/c1ccco1` [F135, 2-(2-(difluoromethoxy)phenyl)-4-((E)-3-(furan-2-yl)allylidene)oxazol-5 (4H)-one], 2.8%. On to `COc1ccccc1C1=NC(=Cc2cnn(C(C)(C)C)c2)C(=O)O1` [F136, 4-((1-(tert-butyl)-1H-pyrazol-4-yl)methylene)-2-(2-methoxyphenyl)oxazol-5(4H)-one], for which the inhibition at 30 µM was 2.4%.

On to `CCCc1ccc(C2=NC(=Cc3scnc3C)C(=O)O2)cc1` [F137, 4-((4-Methylthiazol-5-yl)methylene)-2-(4-propylphenyl)oxazol-5(4H)-one], for which the inhibition at 30 µM was 3.1%. For `CCCCOc1ccc(C2=NC(=Cc3ccc[nH]3)C(=O)O2)cc1` [F138, 4-((1H-pyrrol-2-yl)methylene)-2-(4-butoxyphenyl)oxazol-5 (4H)-one], the inhibition at 30 µM worked out at 2.7%. Same read-out and setting: the result for `CCCCCCc1ccc(C2=NC(=Cc3cccs3)C(=O)O2)cc1` [F139, 2-(4-Hexylphenyl)-4-(thiophen-2-ylmethylene)oxazol-5 (4H)-one] reads 2.5%. Consider `CC(C)(C)c1ccc(C2=NC(=Cc3cc4ccccc4[nH]3)C(=O)O2)cc1` [F140, 4-((1H-indol-2-yl)methylene)-2-(4-(tert-butyl)phenyl)oxazol-5(4H)-one], for which the inhibition at 30 µM is 3.3%. For `CCCCCc1ccc(C2=NC(=Cc3ccco3)C(=O)O2)cc1` [F141, 4-(Furan-2-ylmethylene)-2-(4-pentylphenyl)oxazol-5(4H)-one], the inhibition at 30 µM was found to be 1.9%.

Take `CCCCOc1ccc(C2=NC(=Cc3cccs3)C(=O)O2)cc1` [F142, 2-(4-Butoxyphenyl)-4-(thiophen-2-ylmethylene)oxazol-5 (4H)-one]: the inhibition at 30 µM is 2.4%. With `CCCc1ccc(C2=NC(=Cc3ccc[nH]3)C(=O)O2)cc1` [F143, 4-((1H-pyrrol-2-yl)methylene)-2-(4-propylphenyl)oxazol-5(4H)-one], the inhibition at 30 µM worked out at 87.4%. Still for that read-out and setting: the result for `CCCc1ccc(C2=NC(=Cc3cccs3)C(=O)O2)cc1` [F144, 2-(4-Propylphenyl)-4-(thiophen-2-ylmethylene)oxazol-5(4H)-one] reads 21.3%. The same measure, in the same setting: to `CCCc1ccc(C2=NC(=Cc3ccsc3)C(=O)O2)cc1` [F145, 2-(4-Propylphenyl)-4-(thiophen-3-ylmethylene)oxazol-5 (4H)-one] belongs 20.8%; to `CCCc1ccc(C2=NC(=Cc3ccco3)C(=O)O2)cc1` [F146, 4-(Furan-2-ylmethylene)-2-(4-propylphenyl)oxazol-5(4H)-one], 26.1%; to `CCCCCCc1ccc(C2=NC(=Cc3ccc[nH]3)C(=O)O2)cc1` [F147, 4-((1H-pyrrol-2-yl)methylene)-2-(4-hexylphenyl)oxazol-5(4H)-one], 3.4%. Same read-out and setting: to `CC(C)(C#N)c1ccc(C2=NC(=Cc3ccc[nH]3)C(=O)O2)cc1` [F148] belongs 100%.

In the case of `Cc1cc(C)cc(C2=NC(=Cc3ccc[nH]3)C(=O)O2)c1` [F149, 4-((1H-pyrrol-2-yl)methylene)-2-(3,5-dimethylphenyl)oxazol-5(4H)-one], the inhibition at 30 µM worked out at 4.8%. For the compound `Cc1cc(C)cc(C2=NC(=Cc3cccs3)C(=O)O2)c1` [F150, 2-(3,5-Dimethylphenyl)-4-(thiophen-2-ylmethylene)oxazol-5(4H)-one], the inhibition at 30 µM amounted to 6.9%. In the case of `COC(=O)C(=Cc1ccc[nH]1)NC(=O)c1ccc(C(C)(C)C)cc1` [G1, Methyl 2-(4-(tert-butyl)benzamido)-3-(1H-pyrrol-2-yl)acrylate], the inhibition at 30 µM stood at 2.9%. Take `COC(=O)C(=Cc1cccs1)NC(=O)c1ccc(C(C)(C)C)cc1` [G2, Methyl 2-(4-(tert-butyl)benzamido)-3-(thiophen-2-yl)acrylate]: the inhibition at 30 µM turned out to be 3.8%. The same measure, in the same setting: to `CC(C)(C)c1ccc(C(=O)NC(=Cc2cccs2)C(=O)O)cc1` [G3, 2-(4-(tert-butyl)benzamido)-3-(thiophen-2-yl)acrylate] belongs 55.6%.

The assay is the same for the next values; noted with them: compounds showing pendrin inhibitory activity of 50% or more at 30 μM; read-out: IC50.
One may read the IC50 as the concentration that gives 50% inhibition. `CCCc1ccc(C2=NC(=Cc3ccc[nH]3)C(=O)O2)cc1` [F143, 4-((1H-pyrrol-2-yl)methylene)-2-(4-propylphenyl)oxazol-5(4H)-one]: the IC50 was determined as 5.3 ± 0.69 µM. As for `CC(C)(C#N)c1ccc(C2=NC(=Cc3ccc[nH]3)C(=O)O2)cc1` [F148], the IC50 was 0.2 ± 0.06 µM. For the compound `CC(C)(C)c1ccc(C(=O)NC(=Cc2cccs2)C(=O)O)cc1` [G3, 2-(4-(tert-butyl)benzamido)-3-(thiophen-2-yl)acrylate], the half-inhibitory concentration (IC50) was 26.8 ± 2.54 µM.
